PubChem BioAssay (NCI)
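Exposure lasted 48 hours, with cells grown in 96-well plates and compounds tested at five concentrations. TGI is the concentration that stops growth completely.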

How the values were obtained:
Test in all cases: NCI anticancer screen, dose series, 48 h
[1] = test system: NCI/ADR-RES ovarian
[2] = test system: NCI-H460 lung
[3] = test system: UO-31 renal
[4] = test system: SK-MEL-2 melanoma
[5] = test system: HT29 colon
[6] = test system: T-47D breast
[7] = test system: HOP-62 NSCLC
[8] = test system: PC-3 prostate
[9] = test system: BT-549 breast
[10] = test system: SF-539 CNS
[11] = test system: IGROV1 ovarian
[12] = test system: 786-0 renal
[13] = test system: HCT-116 colon
[14] = test system: SNB-75 CNS
[15] = test system: MOLT-4 leukemia
[16] = test system: OVCAR-5 ovarian
[17] = test system: TK-10 renal
[18] = test system: RPMI-8226 leukemia
[19] = test system: SK-MEL-28 melanoma
[20] = test system: NCI-H23 lung
[21] = test system: ACHN renal
[22] = test system: SNB-19 CNS
[23] = test system: MCF7 breast
[24] = test system: U251 CNS
[25] = test system: MALME-3M melanoma
[26] = test system: SK-OV-3 ovarian
[27] = test system: COLO 205 colon
[28] = test system: LOX IMVI melanoma
[29] = test system: UACC-62 melanoma
[30] = test system: NCI-H226 lung
[31] = test system: HOP-92 NSCLC
[32] = test system: HCT-15 colon
[33] = test system: SF-295 CNS
[34] = test system: RXF 393 renal
[35] = test system: A549 NSCLC
[36] = test system: NCI-H522 lung
[37] = test system: OVCAR-4 ovarian
[38] = test system: M14 melanoma
[39] = test system: OVCAR-8 ovarian
[40] = test system: KM12 colon
[41] = test system: EKVX NSCLC
[42] = test system: MDA-N
[43] = test system: SW-620 colon
[44] = test system: SK-MEL-5 melanoma
[45] = test system: MDA-MB-231 breast
[46] = test system: HCC-2998 colon
[47] = test system: UACC-257 melanoma
[48] = test system: MDA-MB-435
[49] = test system: SR leukemia
[50] = test system: CAKI-1 renal
[51] = test system: SF-268 CNS
[52] = test system: K-562 leukemia
[53] = test system: HS 578T breast
[54] = test system: SN12C renal

Measured: TGI

C=CCOC(=O)C[C@H](NC(=O)[C@H](Cc1ccc(O)cc1)NCC(F)(F)F)C(=O)OCC=C
46.1 µM: [4]
44.5 µM: [19]
52.7 µM: [25]
58.1 µM: [6]
60.1 µM: [15]
44.2 µM: [47]
68.9 µM: [36]
97.5 µM: [44]
> 100 µM: [1] | [2] | [3] | [5] | [7] | [8] | [9] | [10] | [11] | [12] | [13] | [14] | [16] | [17] | [18] | [20] | [21] | [22] | [23] | [24] | [26] | [27] | [28] | [29] | [30] | [31] | [32] | [33] | [34] | [35] | [37] | [38] | [39] | [40] | [41] | [42] | [43] | [45] | [46] | [48] | [49] | [50] | [51] | [52] | [53] | [54]
